In series [1] the test system is carrageenan-induced foot pad edema. Nature of the series: Rat carrageenan-induced foot pad edema assay. Format: in vivo. Particulars: 10 mg/kg oral. On the procedure: Male Sprgue-Dawley rats (190-220 g ) were fasted with free access to water at least 16 h prior experiments. The rats were dosed orally with a 1 ml suspension of test compound in vehicle (0.5% methyl cellulose and 0.025% Tween-20) or with vehicle alone. One hour later a subplantar injection of 0.1 ml of 1% solution of carageenan in 0.9% strile saline was administered to the right hind foot pad. Paw volume was measured with a displacement plethysmometer 2, 3, and 4 h after carrageenan injection.

The target of another series is T1, COX-2 (Mus musculus, UniProt Q05769).
T1 construct: endogenous in cells; host or cells: thioglycollate-elicited peritoneal macrophages of male C57BL-6J mice, stimulated with LPS
T1 sequence (Q05769 18-604): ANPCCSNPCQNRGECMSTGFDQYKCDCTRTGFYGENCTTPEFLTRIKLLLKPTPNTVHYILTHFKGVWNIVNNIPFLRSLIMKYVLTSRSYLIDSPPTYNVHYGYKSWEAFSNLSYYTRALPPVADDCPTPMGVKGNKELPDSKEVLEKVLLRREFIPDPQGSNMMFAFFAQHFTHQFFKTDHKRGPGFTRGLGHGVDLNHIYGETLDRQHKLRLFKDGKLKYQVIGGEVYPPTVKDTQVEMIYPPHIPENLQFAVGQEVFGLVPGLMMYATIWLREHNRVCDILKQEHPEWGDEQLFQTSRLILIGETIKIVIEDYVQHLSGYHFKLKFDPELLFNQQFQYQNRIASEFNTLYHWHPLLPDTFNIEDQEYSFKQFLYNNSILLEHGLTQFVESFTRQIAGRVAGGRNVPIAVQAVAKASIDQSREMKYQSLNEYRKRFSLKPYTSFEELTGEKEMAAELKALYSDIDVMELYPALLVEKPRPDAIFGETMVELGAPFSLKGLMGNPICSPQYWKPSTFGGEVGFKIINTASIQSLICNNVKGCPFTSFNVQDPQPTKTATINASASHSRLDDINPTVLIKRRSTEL
In words: COX-2 assay: PGE2 release (RIA) from LPS-stimulated mouse peritoneal macrophages. Type of series: cell-based, mice. The conditions noted are these: LPS 1 mg/L 9 h, PGE2 by RIA. As to the method: Cell culture: Adherent macrophages were harvested from the peritoneal cells of male mice (C57BL-6J, Level 2, from Experiment Animal Center, Academy of Military Medical Science) 3 d after the injection (ip) of brewer thioglycollate medium (5 mL/100 g body weight). […] Cell viability was examined by trypan blue dye exclusion. All incubation procedures were performed with 5% CO2 in humidified air at 37° C.
COX-2 assay: Macrophages were incubated with test compound at different concentrations or solvent (Me2SO) for 1 h and were stimulated with LPS 1 mg/L for 9 h. The amount of PGE2 in supernatants was measured by RIA. The inhibitory ratio was calculated using the same Formula as in COX-1 assay section. Cs, Ct, Cc refer to PGE2 concentration in supernatants of LPS, test compound, and control groups, respectively.
Statistical analysis: Data were expressed as the mean±SD of more than three independent experiments. Dose-inhibitory effect curves were fit through “uphill dose response curves, variable slope” using Prism, GraphPad (version 3.00): [formula]

As a reminder, the melting point is the temperature of the solid-liquid transition. Broadly, the IC50 is the concentration needed to halve the response being measured. Low values mean higher potency, high ones lower potency. In turn, `CC(=O)Oc1ccccc1-c1[nH]c2ccc(Cl)cc2c1-c1ccc(S(C)(=O)=O)cc1` [Example 93, 2-(2-acetyloxyphenyl)-3-(4-methylsulfonylphenyl)-5-chloroindole] yielded a melting point of 238 to 240 °C. Moreover, in series [1] (2 h after carrageenan), the edema (paw volume increase) was found to be 49.5 ± 8.2% and the “inhibitory percentage of edema” value was 30.7%. Moreover, in series [1] (3 h after carrageenan), the edema (paw volume increase) turned out to be 54.4 ± 8.9% and the “inhibitory percentage of edema” value stood at 44.3%. Further, in series [1] (4 h after carrageenan), the edema (paw volume increase) stood at 53.6 ± 11.4% and the “inhibitory percentage of edema” value is reported as 33.5%. The compound also gave an IC50 against COX-2 of 6 nM.
For the compound `CC(=O)Oc1ccc(-c2[nH]c3ccc(Cl)cc3c2-c2ccc(S(C)(=O)=O)cc2)cc1` [Example 94, 2-(4-acetyloxyphenyl)-3-(4-methylsulfonylphenyl)-5-chloroindole], the melting point is 248 to 250 °C. In series [1] (2 h after carrageenan), the edema (paw volume increase) is 58.8 ± 11.4% and the “inhibitory percentage of edema” value turned out to be 17.6%. For the same compound, in series [1] (3 h after carrageenan), the edema (paw volume increase) is 62.1 ± 7.1% and the “inhibitory percentage of edema” value is 36.3%. Besides, in series [1] (4 h after carrageenan), the edema (paw volume increase) was determined as 56.4 ± 11.7% and the “inhibitory percentage of edema” value came to 30.0%. This compound also gave an IC50 on COX-2 of 7.16 nM.
Consider `CS(=O)(=O)c1ccc(-c2c(-c3ccccc3)[nH]c3ccccc23)cc1` [Example 100, 2-phenyl-3-(4-methylsulfonylphenyl)indole], for which the melting point lay within 239 to 241 °C. Further, in series [1] (2 h after carrageenan), the edema (paw volume increase) is 42.8 ± 15.1% and the “inhibitory percentage of edema” value was found to be 40.1%. In series [1] (3 h after carrageenan), the edema (paw volume increase) was determined as 54.4 ± 7.9% and the “inhibitory percentage of edema” value is reported as 44.3%. In series [1] (4 h after carrageenan), the edema (paw volume increase) worked out at 43.5 ± 8.9% and the “inhibitory percentage of edema” value worked out at 46.1%. This compound also returned an IC50 against COX-2 of 0.216 nM.
The compound `NS(=O)(=O)c1ccc(-c2c(-c3ccccc3)[nH]c3ccccc23)cc1` [Example 101, 2-phenyl-3-(4-aminosulfonylphenyl)indole] showed a melting point of 223 to 225 °C. This compound yielded an edema (paw volume increase) in series [1] (2 h after carrageenan) of 36.6 ± 8.9%. Moreover, in series [1] (3 h after carrageenan), the edema (paw volume increase) is 39.1 ± 15.4% and the “inhibitory percentage of edema” value is on record as 36.1%. Also, in series [1] (4 h after carrageenan), the edema (paw volume increase) was 33.6 ± 16.5% and the “inhibitory percentage of edema” value was found to be 44.2%. On COX-2, the IC50 came out at 2.55 nM.
